The values below come from patent US11976057B2, “MrgX2 antagonists” (GlaxoSmithKline Intellectual Property Development Limited, priority 2020, dated 2024).

The target of the assay is T1, human MRGPRX2 (Homo sapiens, UniProt Q96LB1).
T1 sequence (Q96LB1 1-330): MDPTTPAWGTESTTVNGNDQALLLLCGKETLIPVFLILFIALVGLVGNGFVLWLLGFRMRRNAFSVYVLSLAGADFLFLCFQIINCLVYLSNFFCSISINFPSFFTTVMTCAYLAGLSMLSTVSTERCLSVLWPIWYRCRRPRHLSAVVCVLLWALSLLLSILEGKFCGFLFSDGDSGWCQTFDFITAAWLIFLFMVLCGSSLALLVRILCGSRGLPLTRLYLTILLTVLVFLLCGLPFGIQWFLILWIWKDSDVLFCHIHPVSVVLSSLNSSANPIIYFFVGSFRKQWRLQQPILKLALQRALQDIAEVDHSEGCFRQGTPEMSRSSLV
The experiment in a line: Ca2+ mobilization assay (FLIPR TETRA): inhibition of Cortistatin-14 mediated MRGPRX2 activation. A general note: A change in cytosolic calcium serves as a functional read-out for many receptors and channels.

The IC50 is the concentration at which inhibition is half-maximal. The low end stands for inhibition by little substance, the high end for a need for much substance.

Compound `C[C@@H](C(=O)Nc1ccc(Cl)cn1)N1CCC[C@@H](c2ccc(=O)n(Cc3ccccc3)c2)C1` (single isomer, unassigned) [Example 168] returned an IC50 of 0.1 to 3.16 µM.
The figure for `C[C@@H](C(=O)Nc1ccc(OCC2CC2)cn1)N1CCC[C@@H](c2c[nH]c(=O)cc2C(F)(F)F)C1` (single isomer, unassigned) [Example 169] is 0.1 to 3.16 µM; for `C[C@@H](C(=O)Nc1ccc(OCC2CC2)cn1)N1CCC[C@@](O)(c2ccc(=O)[nH]c2)C1` (single isomer, unassigned) [Example 171] it is 3.16 to 31.6 µM.
Consider `C[C@@H](C(=O)Nc1ccc(Cl)cn1)N1CCC[C@@H](c2c[nH]c(=O)c(N)n2)C1` (single isomer, unassigned) [Example 174], for which the IC50 lay in the range of 0.1 to 3.16 µM.
Take `C[C@@H](C(=O)Nc1ccc(Cl)cn1)N1CCC[C@@H](c2c[nH]c(=O)c(CN)c2)C1` (single isomer, unassigned) [Example 175]: the IC50 was in the range of 3.16 to 31.6 µM.
With `C[C@@H](C(=O)Nc1ccc(Cl)cn1)N1CCC[C@@H](c2c[nH]c(=O)c(CO)c2)C1` (single isomer, unassigned) [Example 177] the figure was 3.16 to 31.6 µM; with `C[C@@H](C(=O)Nc1ccc(Cl)cn1)N1CCC[C@@H](c2c[nH]c(=O)c(-c3ccccc3)c2)C1` (single isomer, unassigned) [Example 178], 0.1 to 3.16 µM; with `C[C@@H](C(=O)Nc1ccc(Cl)cn1)N1CCC[C@@H](c2c[nH]c(=O)c(C3CC3)c2)C1` (single isomer, unassigned) [Example 179], 0.1 to 3.16 µM.
The figure for `C[C@@H](C(=O)Nc1ccc(Cl)cn1)N1CCC[C@@H](c2cc[n+]([O-])cc2)C1` (single isomer, unassigned) [Example 180] is 3.16 to 31.6 µM.
With `CC(C)(C(=O)Nc1ccc(OCC2CC2)cn1)N1CCC(F)(F)[C@@H](c2ccc(=O)[nH]c2)C1` (single isomer, unassigned) [Example 183] the figure was 0.1 to 3.16 µM; with `Cc1cc([C@@H]2CCCN([C@@H](C)C(=O)Nc3ccc(Cl)cn3)C2)c[nH]c1=O` (single isomer, unassigned) [Example 184], 3.16 to 31.6 µM; with `C[C@@H](C(=O)Nc1ccc(OCC2CC2)cn1)N1CCC[C@@H](c2ccc(=O)[nH]n2)C1` (single isomer, unassigned) [Example 185], 0.1 to 3.16 µM.
Turning to `C[C@@H](C(=O)Nc1ccc(F)cn1)N1CCC(F)(F)[C@@H](c2c[nH]c(=O)c(CN)c2)C1` (single isomer, unassigned) [Example 201], the IC50 lay within 0.1 to 3.16 µM.
Turning to `C[C@@H](C(=O)Nc1ccc(OCC2CC2)nn1)N1CCC(F)(F)[C@@H](c2c[nH]c(=O)c([C@H](O)C(F)(F)F)c2)C1` (single isomer, unassigned) [Example 210, (S)-N-(6-(cyclopropylmethoxy)pyridazin-3-yl)-2-((S)-4,4-difluoro-3-(6-oxo-5-((S)-2,2,2-trifluoro-1-hydroxyethyl)-1,6-dihydropyridin-3-yl)piperidin-1-yl)propanamide or (S)-N-(6-(cyclopropylmethoxy(pyridazin-3-yl)-2-((S)-4,4-difluoro-3-(6-oxo-5-((R)-2,2,2-trifluoro-1-hydroxyethyl)-1,6-dihydroypridin-3-yl)piperidin-1-yl)propanamide], the IC50 was no more than 0.01 µM.
With `C[C@@H](C(=O)Nc1ccc(OCC2CC2)nn1)N1CCC(F)(F)[C@@H](c2c[nH]c(=O)c(CN3CCOCC3)c2)C1` (single isomer, unassigned) [Example 225] the figure was 0.1 to 3.16 µM.
Take `C[C@@H](C(=O)Nc1ccc(Oc2ccc(F)cc2)cn1)N1CCC(F)(F)[C@@H](c2c[nH]c(=O)c([C@H](N)C(F)(F)F)c2)C1` (single isomer, unassigned) [Example 233]: the IC50 is no more than 0.01 µM.
The figure for `C[C@@H](C(=O)Nc1ccc(Oc2ccc(F)cc2)cn1)N1CCC(F)(F)[C@@H](c2c[nH]c(=O)c([C@@H](N)C(F)(F)F)c2)C1` (single isomer, unassigned) [Example 234] is no more than 0.01 µM.
With `C[C@@H](C(=O)Nc1ccc(Oc2ccc(F)cc2F)cn1)N1CCC(F)(F)[C@@H](c2c[nH]c(=O)c([C@H](N)C(F)(F)F)c2)C1` (single isomer, unassigned) [Example 235] the figure was no more than 0.01 µM; with `C[C@@H](C(=O)Nc1ccc(Oc2ccc(F)cc2F)cn1)N1CCC(F)(F)[C@@H](c2c[nH]c(=O)c([C@@H](N)C(F)(F)F)c2)C1` (single isomer, unassigned) [Example 236], no more than 0.01 µM.
The figure for `CC(=O)NCc1cc([C@H]2CN([C@@H](C)C(=O)Nc3ccc(Oc4ccc(F)cc4)cn3)CCC2(F)F)c[nH]c1=O` (single isomer, unassigned) [Example 245] is no more than 0.01 µM.
In the case of `C[C@@H](C(=O)Nc1ccc(Oc2ccc(F)cc2F)cn1)N1CCC(F)(F)[C@@H](c2cc[n+]([O-])c(C(N)=O)c2)C1` (single isomer, unassigned) [Example 258], the half-inhibitory concentration (IC50) is no more than 0.01 µM.
The figure for `C[C@@H](C(=O)Nc1ccc(OCC2CC2)cn1)[C@H]1CCC(F)(F)[C@@H](c2ccc(=O)[nH]c2)C1` (single isomer, unassigned) [Example 275] is no more than 0.01 µM; for `C[C@@H](C(=O)Nc1ccc(OCC2CC2)nn1)N1CCC(F)(F)[C@@H](c2ccc(=O)n(CC(F)(F)F)c2)C1` [Example 1, (S)—N-(6-(cyclopropylmethoxy)pyridazin-3-yl)-2-((S)-4,4-difluoro-3-(6-oxo-1-(2,2,2-trifluoroethyl)-1,6-dihydropyridin-3-yl)piperidin-1-yl)propanamide] it is no more than 0.01 µM.
The figure for `C[C@@H](C(=O)Nc1ccc(F)cn1)N1CCC(F)(F)[C@@H](c2ccc(=O)n(CC(F)(F)F)c2)C1` [Example 3, (S)-2-((S)-4,4-difluoro-3-(6-oxo-1-(2,2,2-trifluoroethyl)-1,6-dihydropyridin-3-yl)piperidin-1-yl)-N-(5-fluoropyridin-2-yl)propanamide] is no more than 0.01 µM; for `C[C@@H](C(=O)Nc1ccc(Oc2ccc(F)cc2F)cn1)N1CCC(F)(F)[C@@H](c2ccc(=O)[nH]c2)C1` [Example 4, (S)-2-((S)-4,4-difluoro-3-(6-oxo-1,6-dihydropyridin-3-yl)piperidin-1-yl)-N-(5-(2,4-difluorophenoxy)pyridin-2-yl)propanamide] it is no more than 0.01 µM.
With `C[C@@H](C(=O)Nc1ccc(Oc2ccc(F)cc2)cn1)N1CCC(F)(F)[C@@H](c2ccc(=O)[nH]c2)C1` [Example 5, (S)-2-((S)-4,4-difluoro-3-(6-oxo-1,6-dihydropyridin-3-yl)piperidin-1-yl)-N-(5-(4-fluorophenoxy)pyridin-2-yl)propanamide] the figure was no more than 0.01 µM.
Consider `C[C@@H](C(=O)Nc1ccc(Oc2ccccc2)cn1)N1CCC(F)(F)[C@@H](c2ccc(=O)[nH]c2)C1` [Example 6, (S)-2-((S)-4,4-difluoro-3-(6-oxo-1,6-dihydropyridin-3-yl)piperidin-1-yl)-N-(5-phenoxypyridin-2-yl)propanamide], for which the IC50 is no more than 0.01 µM.
The compound `C[C@@H](C(=O)Nc1ccc(Cc2ccccc2)cn1)N1CCC(F)(F)[C@@H](c2ccc(=O)[nH]c2)C1` [Example 7, (S)-N-(5-benzylpyridin-2-yl)-2-((S)-4,4-difluoro-3-(6-oxo-1,6-dihydropyridin-3-yl)piperidin-1-yl)propanamide] displayed a concentration for half-maximal inhibition (IC50) of no more than 0.01 µM.
Regarding `C[C@@H](C(=O)Nc1ccc(OCC2CC2)nn1)N1CCC(F)(F)[C@@H](c2ccc(=O)[nH]c2)C1` [Example 8, N-(6-(cyclopropylmeth-oxy)pyridazin-3-yl)-2-((S)-4,4-difluoro-3-(6-oxo-1,6-dihydropyridin-3-yl)piperidin-1-yl)propanamide], the IC50 lay in the range of 0.01 to 0.1 µM.
The figure for `C[C@@H](C(=O)Nc1ccc(OC2CCCC2)cn1)N1CCC(F)(F)[C@@H](c2ccc(=O)[nH]c2)C1` [Example 9, (S)-N-(5-(cyclopentyloxy)pyridin-2-yl)-2-((S)-4,4-difluoro-3-(6-oxo-1,6-dihydropyridin-3-yl)piperidin-1-yl)propanamide] is 0.01 to 0.1 µM.
In the case of `C[C@@H](C(=O)Nc1ccc(/C=C/C2CC2)cn1)N1CCC(F)(F)[C@@H](c2ccc(=O)[nH]c2)C1` [Example 10], the IC50 is 0.01 to 0.1 µM.
With `Cc1cccc(-c2ccc(NC(=O)[C@H](C)N3CCC(F)(F)[C@@H](c4ccc(=O)[nH]c4)C3)nc2)n1` [Example 11, (S)-2-((S)-4,4-difluoro-3-(6-oxo-1,6-dihydropyridin-3-yl)piperidin-1-yl)-N-(6-methyl-[2,3′-bipyridin]-6′-yl)propanamide] the figure was 0.1 to 3.16 µM; with `C[C@@H](C(=O)Nc1ccc(Cc2ccccc2)nn1)N1CCC(F)(F)[C@@H](c2ccc(=O)[nH]c2)C1` [Example 12, (S)-N-(6-benzylpyridazin-3-yl)-2-((S)-4,4-difluoro-3-(6-oxo-1,6-dihydropyridin-3-yl)piperidin-1-yl)propanamide], 0.01 to 0.1 µM; with `C[C@@H](C(=O)Nc1ccc(Cc2ccncc2)cn1)N1CCC(F)(F)[C@@H](c2ccc(=O)[nH]c2)C1` [Example 13, (S)-2-((S)-4,4-difluoro-3-(6-oxo-1,6-dihydropyridin-3-yl)piperidin-1-yl)-N-(5-(pyridin-4-ylmethyl)pyridin-2-yl)propanamide], 0.01 to 0.1 µM.
The figure for `C[C@@H](C(=O)Nc1ccc(C2CCCC2)cn1)N1CCC(F)(F)[C@@H](c2ccc(=O)[nH]c2)C1` [Example 14, (S)-N-(5-cyclopentyl-pyridin-2-yl)-2-((S)-4,4-difluoro-3-(6-oxo-1,6-dihydropyridin-3-yl)piperidin-1-yl)propanamide] is 0.01 to 0.1 µM.
